Where two headings read alike, the source gives them in different places.
Experiments:
Phytophthora infestans = assay type: in vivo
Fusarium graminearum [1] = assay type: in vivo
[2] = Determination of log P values by HPLC on a reverse phase column (C18), EEC-Directive 79/831 Annex V.A8 (Methods A, B, C); assay type: physicochemical; details: for chromatographic logP: reverse phase C18 HPLC column
In short: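 Three C18 chromatographic methods following EEC-Directive 79/831 Annex V.A8 gave the logP values. Method C (UPLC, 2.1 mm column) ran at 40 °C and 0.8 mL/min with a 3.25 min 10–95% acetonitrile gradient. Methods A and B both ran at 55 °C and 2.0 mL/min, with gradients of 10–95% in 4.25 min and 5–95% in 1.70 min.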

Plasmopara viticola = assay: Example H: Plasmopara test (grapevines) / preventive; assay type: in vivo
Septoria tritici = assay: Example J: Septoria tritici test (wheat) / preventive; assay type: in vivo
Pyricularia oryzae = assay type: in vivo
Puccinia recondita = assay: Example E: Puccinia test (wheat) / preventive; assay type: in vivo
Venturia inaequalis = assay: Example I: Venturia test (apples) / preventive; details: 100 ppm of active ingredient, preventive spray, evaluated 10 days after inoculation
Method: After the spray coating has dried on, the plants are inoculated with an aqueous conidia suspension of the causal agent of apple scab (Venturia inaequalis) and then remain for 1 day in an incubation cabinet at approximately 20° C. and a relative atmospheric humidity of 100%.
The plants are then placed in a greenhouse at approximately 21° C. and a relative atmospheric humidity of approximately 90%.
The test is evaluated 10 days after the inoculation.

Pyrenophora teres = assay: Example D: Pyrenophora test (barley) / preventive; assay type: in vivo
Leptosphaeria nodorum = assay: Example C: Leptosphaeria test (wheat) / preventive; assay type: in vivo; details: in vivo
Sphaerotheca fuliginea = assay: Example A: Sphaerotheca test (cucumber) / preventive; assay type: in vivo
[3] = tested on: Fusarium nivale (var. majus); assay: Example K: Fusarium nivale (var. majus) test (wheat) / preventive; assay type: in vivo; details: 500 ppm of active ingredient, preventive spray, evaluated 5 days after inoculation
Method: After the spray coating has been dried, the plants are slightly injured by using a sandblast and afterwards they are sprayed with a conidia suspension of Fusarium nivale (var. majus).
The test is evaluated 5 days after the inoculation.

[4] = tested on: DON/Acetyl-DON production by Fusarium graminearum; assay: microbe, parasite or virus in culture; assay type: cell-based; details: at 50 μM
Fusarium graminearum [5] = assay: microbe, parasite or virus in culture; assay type: cell-based; details: for Growth inhibition of Fusarium graminearum in %: at 50 μM
Uromyces appendiculatus = assay: Example B: Uromyces test (beans) / preventive; assay type: in vivo; details: in vivo
[6] = 100 ppm of active ingredient, tomatoes, preventive spray, evaluated 3 days after inoculation
[7] = pH 2.7, values in the synthesis examples, HPLC, reverse phase C18, read-out: log P (pH 2.7)
[8] = 500 ppm of active ingredient, rice, preventive spray, evaluated 7 days after inoculation
[9] = 500 ppm of active ingredient, barley, preventive spray, evaluated 7-9 days after inoculation
[10] = 500 ppm of active ingredient, cucumber, preventive spray, evaluated 7 days after inoculation
[11] = Method C (HPLC, reverse phase C18)

SMILES	efficacy (Phytophthora infestans; in vivo) [%]	efficacy (Fusarium graminearum [1]; in vivo) [%]	efficacy (Plasmopara viticola; in vivo) [%]	efficacy (Septoria tritici; in vivo) [%]	efficacy (Pyricularia oryzae; in vivo) [%]	efficacy (Puccinia recondita; in vivo) [%]	efficacy (Venturia inaequalis) [%]	efficacy (Pyrenophora teres; in vivo) [%]	efficacy (Leptosphaeria nodorum) [%]	efficacy (Sphaerotheca fuliginea; in vivo) [%]	efficacy [3] [%]	LogP [2, 11]	efficacy (Uromyces appendiculatus) [%]	further results
CCC(=O)N(C(=O)C1CC1)c1cc(-c2c(-c3ccc(F)cc3)nn3c2OCCC3)ccn1 [Example 54]	99	100	100	100	90	95	95	95	80	100	100			LogP ([2]; Method A: HPLC, reverse phase C18, acetonitrile (0.1% formic acid)/water (0.09% formic acid) gradient): 2.77
CC(=O)Nc1cc(-c2c(-c3ccccc3)nn3c2NCCC3)ccn1 [Example 55, N-[4-(2-phenyl-4,5,6,7-tetrahydropyrazolo[1,5-a]pyrimidin-3-yl)pyridin-2-yl]acetamide]							93							efficacy (Phytophthora infestans; [6]): 91%; chromatographic logP ([2]; Method C (HPLC, reverse phase C18), read-out: LogP): 1.13; chromatographic logP [2, 7]: 1.13; efficacy (Pyricularia oryzae; [8]): 70%; efficacy (Pyrenophora teres; [9]): 90%; inhibition at 50 µM ([4]; Fusarium graminearum, read-out: Inhibition of DON/AcDON in %): 100%; efficacy (Sphaerotheca fuliginea; [10]): 88%; inhibition at 50 µM (Fusarium graminearum [5]; Fusarium graminearum, read-out: Growth inhibition of Fusarium graminearum in %): 100%
CC(=O)Nc1cc(-c2c(-c3ccc(F)cc3)nn3c2OC[Si](C)(C)C3)ccn1 [Example 61]	71		100		70	75	96	95	78			2.01	84	
CCC(=O)Nc1cc(-c2c(-c3ccc(F)cc3)nn3c2OCCC3C)ccn1 (stereo not shown) [Example 63, N-{4-[2-(4-fluorophenyl)-7-methyl-6,7-dihydro-5H-pyrazolo[5,1-b][1,3]oxazin-3-yl]pyridin-2-yl}propanamide]							100				100			efficacy (Phytophthora infestans; [6]): 95%; efficacy (Fusarium graminearum [1]; 500 ppm of active ingredient, barley, preventive spray, evaluated 5 days after inoculation): 88%; chromatographic logP ([2]; Method A: HPLC, reverse phase C18, acetonitrile (0.1% formic acid)/water (0.09% formic acid) gradient, read-out: LogP): 1.61; chromatographic logP [2, 7]: 1.61; efficacy (Plasmopara viticola; 100 ppm of active ingredient, grapevines, preventive spray, evaluated 6 days after inoculation): 95%; efficacy (Septoria tritici; 500 ppm of active ingredient, wheat, preventive spray, evaluated 21 days after inoculation): 94%; efficacy (Pyricularia oryzae; [8]): 95%; efficacy (Puccinia recondita; 500 ppm of active ingredient, wheat, preventive spray, evaluated 7-9 days after inoculation): 80%; efficacy (Pyrenophora teres; [9]): 100%; efficacy (Sphaerotheca fuliginea; [10]): 95%
CC(C)C(=O)Nc1cc(-c2c(-c3ccc(F)cc3)nn3c2OC[Si](C)(C)C3)ccn1 [Example 76]		86	100	86	90	95	100	95	75	95	100	2.14	94	
CCC(=O)Nc1cc(-c2c(-c3ccc(F)cc3)nn3cccnc23)ccn1 [Example 79]	95		88				96	100		80		1.91		
C[Si]1(C)COc2c(-c3ccnc(NC(=O)C4CC4)c3)c(-c3ccc(F)cc3)nn2C1 [Example 81]		100	100	88	95	100	99	90	75	98	100	2.18	94	
CCC(=O)Nc1cc(-c2c(-c3cccs3)nn3c2OC[Si](C)(C)C3)ccn1 [Example 82]	85		100		70	70	94	95				1.81		Inhibition of DON/AcDON in % [4]: 100%; Growth inhibition of Fusarium graminearum in % (Fusarium graminearum [5]): 100%
CC(C)C(=O)Nc1cc(-c2c(-c3cccs3)nn3c2OC[Si](C)(C)C3)ccn1 [Example 86]	98		100		80	95	100	90				2.28	94	Inhibition of DON/AcDON in % [4]: 99%; Growth inhibition of Fusarium graminearum in % (Fusarium graminearum [5]): 100%

— patent publication US9023844B2, “Heterocyclylpyri (mi) dinylpyrazole as fungicidals” (Bayer Intellectual Property GmbH, priority 2011, dated 2015)
